Assay results reported in patent US20130029942A1, “COMPOUNDS AND THERAPEUTICAL USES THEREOF” (Myrexis, Inc., priority 2003, published 2013).

tested on: P388 murine leukemia cell line; assay: P388 cytotoxicity (ATP-Lite, 72 hours); format: cell-based; details: Mus musculus, P388, 72 hours
Description: A P388 murine leukemia cell line was obtained from NCI, Frederick, Md. P388 cells were cultured in RPMI-1640 supplemented with 10% fetal bovine serum, 2 mM Glutamax, 1 mM sodium pyruvate, 0.1 mM non-essential amino acids and 10 mM HEPES. Cells were grown at 37° C. in a humidified 5% CO2 atmosphere. Exponentially growing P388 cells were plated at 5,000 cells/well in a 96-well flat-bottomed microtiter plate (Corning, Costar #3595). […] Cellular viability was determined 72 hours later by measuring intracellular ATP with ATP-Lite assay system. The effect of compounds on cell viability was calculated by comparing the ATP levels of cells exposed to test compound with those of cells exposed to DMSO. […] Data was analyzed by Prism software (GraphPad; San Diego, Calif.) by fitting it to a sigmoidal dose response curve.

Going from `COc1ccc(N(C)c2nc(C)nc3ccc([N+](=O)[O-])cc23)c(F)c1` [Example 221, (2-Fluoro-4-methoxy-phenyl)-methyl-(2-methyl-6-nitro-quinazolin-4-yl)-amine] to `COc1ccc(N(C)c2nc(C)nc3ccc(N)cc23)c(F)c1` [Example 222, N^4-(2-Fluoro-4-methoxy-phenyl)-2,N^4-dimethyl-quinazoline-4,6-diamine], the IC50 falls from 58 nM to 6 nM (9.7-fold). The second is the more potent here.

Compared with `COc1ccc(N(C)c2nc(C)nc3ccc(N)cc23)cc1OC` [Example 223, N^4-(3,4-Dimethoxy-phenyl)-2,N^4-dimethyl-quinazoline-4,6-diamine], `Cc1nc(N(C)c2ccc(OC(C)C)cc2)c2cc(N)ccc2n1` [Example 226, N^4-(4-Isopropoxy-phenyl)-2,N^4-dimethyl-quinazoline-4,6-diamine] is 3.2-fold lower in IC50: 64 nM for the first, 20 nM for the second. The second is the more potent here.

Compared with `Cc1nc(N(C)c2ccc(OC(C)C)cc2)c2cc([N+](=O)[O-])ccc2n1` [Example 224, (4-Isopropoxy-phenyl)-methyl-(2-methyl-6-nitro-quinazolin-4-yl)-amine], `COc1ccc(N(C)c2nc(C)nc3ccc(Br)cc23)cc1` [Example 245, (6-Bromo-2-methyl-quinazolin-4-yl)-(4-methoxy-phenyl)-methyl-amine] is 85-fold lower in IC50: 170 nM for the first, 2 nM for the second.

First: CNc1ccc(N(C)c2nc(C)nc3ccc(N)cc23)cc1 [Example 225, 2,N^4-Dimethyl-N^4-(4-methylamino-phenyl)-quinazoline-4,6-diamine]
Second: COc1ccc(N(C)c2nc(C)nc3ccc(C#N)cc23)cc1 [Example 249, 4-[(4-Methoxy-phenyl)-methyl-amino]-2-methyl-quinazoline-6-carbonitrile]
The IC50 of the first is 1.9-fold higher: 37 nM for the first, 20 nM for the second.

Going from `COc1ccc(N(C)c2nc(N(C)CCCN)nc3ccccc23)cc1` [Example 227, N^2-(3-Amino-propyl)-N^4-(4-methoxy-phenyl)-N^2,N^4-dimethyl-quinazoline-2,4-diamine] to `CNCc1nc(N(C)c2ccc(OC)cc2)c2ccccc2n1` [Example 233, (4-Methoxy-phenyl)-methyl-(2-methylaminomethyl-quinazolin-4-yl)-amine], the IC50 rises from 27 nM to 1100 nM (41-fold).

Compared with `CNCCCNc1nc(N(C)c2ccc(OC)cc2)c2ccccc2n1` [Example 228, N^4-(4-Methoxy-phenyl)-N^4-methyl-N^2-(3-methylamino-propyl)-quinazoline-2,4-diamine], `COc1ccc(N(C)c2nc(C(C)(C)C#N)nc3ccccc23)cc1` [Example 231, 2-{4-[(4-Methoxy-phenyl)-methyl-amino]-quinazolin-2-yl}-2-methyl-propionitrile] is 24-fold lower in IC50: 900 nM for the first, 37 nM for the second.

Going from `COc1ccc(N(C)c2nc(CN)nc3cccc(F)c23)cc1` [Example 229, (2-Aminomethyl-5-fluoro-quinazolin-4-yl)-(4-methoxy-phenyl)-methyl-amine] to `CCOc1ccc(N(C)c2nc(CN)nc3cccc(F)c23)cc1` [Example 239, (2-Aminomethyl-5-fluoro-quinazolin-4-yl)-(4-ethoxy-phenyl)-methyl-amine], the IC50 rises from 5 nM to 22 nM (4.4-fold).

Going from `CN(c1ccc(O)cc1)c1nc(CN)nc2ccccc12` [Example 230, 4-[(2-Aminomethyl-quinazolin-4-yl)-methyl-amino]-phenol] to `COc1ccc(N(C)c2nc(CN)nc3ccccc23)cc1F` [Example 234, (2-Aminomethyl-quinazolin-4-yl)-(3-fluoro-4-methoxy-phenyl)-methyl-amine], the IC50 falls from 1700 nM to 11 nM (150-fold). The second is the more potent here.

Compared with `COc1ccc(N(C)c2nc(CNC(=O)CCC(=O)O)nc3ccccc23)cc1` [Example 232, N-{4-[(4-Methoxy-phenyl)-methyl-amino]-quinazolin-2-ylmethyl}-succinamic acid], `COc1ccc(N(C)c2nc(CNC(=O)[C@H](C)N)nc3ccccc23)cc1` [Example 238, (S)-2-Amino-N-{4-[(4-methoxy-phenyl)-methyl-amino]-quinazolin-2-ylmethyl}-propionamide] is 79-fold lower in IC50: 950 nM for the first, 12 nM for the second.

Going from `CCOc1ccc(N(C)c2nc(CN)nc3ccccc23)cc1F` [Example 235, (2-Aminomethyl-quinazolin-4-yl)-(4-ethoxy-3-fluoro-phenyl)-methyl-amine] to `CCOc1ccc(N(C)c2nc(C)nc3ccccc23)cc1F` [Example 253, (4-Ethoxy-3-fluoro-phenyl)-methyl-(2-methyl-quinazolin-4-yl)-amine], the IC50 falls from 5 nM to 3 nM (1.7-fold).

Going from `COc1ccc(N(C)c2nc(C)nc3ccc(NS(=O)(=O)c4ccc(OC)cc4)cc23)cc1` [Example 236, 4-Methoxy-N-{4-[(4-methoxy-phenyl)-methyl-amino]-2-methyl-quinazolin-6-yl}-benzenesulfonamide] to `COc1ccc(N(C)c2nc(CN)nc3ccc(-c4ccc(Cl)cc4)cc23)cc1` [Example 241, [2-Aminomethyl-6-(4-chloro-phenyl)-quinazolin-4-yl]-(4-methoxy-phenyl)-methyl-amine], the IC50 rises from 680 nM to 1440 nM (2.1-fold). The first is the more potent here.

`CCOc1ccc(N(C)c2nc(CN)nc3ccccc23)c(F)c1` [Example 237, (2-Aminomethyl-quinazolin-4-yl)-(4-ethoxy-2-fluoro-phenyl)-methyl-amine] and `CCOc1ccc(N(C)c2nc(CN)nc3cccc(F)c23)c(F)c1` [Example 250, (2-Aminomethyl-5-fluoro-quinazolin-4-yl)-(4-ethoxy-2-fluoro-phenyl)-methyl-amine] are within 1.5-fold of each other in IC50: 15 nM for the first, 22 nM for the second.

Compared with `COc1ccc(N(C)c2nc(CN)nc3ccccc23)cc1Cl` [Example 240, (2-Aminomethyl-quinazolin-4-yl)-(3-chloro-4-methoxy-phenyl)-methyl-amine], `COc1ccc(N(C)c2nc(CCl)nc3ccccc23)cc1Cl` [Example 242, (3-Chloro-4-methoxy-phenyl)-(2-chloromethyl-quinazolin-4-yl)-methyl-amine] is 1.7-fold higher in IC50: 6 nM for the first, 10 nM for the second.

Compared with `COc1ccc(N(C)c2nc(CN)nc3ccc(-c4ccccc4)cc23)cc1` [Example 243, (2-Aminomethyl-6-phenyl-quinazolin-4-yl)-(4-methoxy-phenyl)-methyl-amine], `COc1ccc(N(C)c2nc(CNC(=O)c3cccnc3)nc3ccccc23)cc1` [Example 244, N-{4-[(4-Methoxy-phenyl)-methyl-amino]-quinazolin-2-ylmethyl}-nicotinamide] is 72-fold lower in IC50: 4200 nM for the first, 58 nM for the second.

First: CCOc1ccc(N(C)c2nc(C)nc3ccc(Br)cc23)cc1F [Example 246, (6-Bromo-2-methyl-quinazolin-4-yl)-(4-ethoxy-3-fluoro-phenyl)-methyl-amine]
Second: COc1c(Cl)cc(N(C)c2nc(CCl)nc3ccccc23)cc1Cl [Example 251, (2-Chloromethyl-quinazolin-4-yl)-(3,5-dichloro-4-methoxy-phenyl)-methyl-amine]
The IC50 of the first is 190-fold lower: 11 nM for the first, 2080 nM for the second.

First: COc1ccc(N(C)c2nc(-c3nnn[nH]3)nc3ccccc23)cc1 [Example 247, (4-Methoxy-phenyl)-methyl-[2-(1H-tetrazol-5-yl)-quinazolin-4-yl]-amine]
Second: COc1ccc(N(C)c2nc(CNC(=O)[C@@H](C)N)nc3ccccc23)cc1 [Example 248, (R)-2-Amino-N-{4-[(4-methoxy-phenyl)-methyl-amino]-quinazolin-2-ylmethyl}-propionamide]
The IC50 of the first is 3.7-fold lower: 60 nM for the first, 222 nM for the second.

For `COc1ccc(N(C)c2nc(CN3CCCCC3=O)nc3ccccc23)cc1` [Example 252, 1-{4-[(4-Methoxy-phenyl)-methyl-amino]-quinazolin-2-ylmethyl}-piperidin-2-one], the IC50 was 1000 nM.
